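In this assay, cells in 96-well plates receive the compound at five concentrations for 48 hours. Endpoints are linearly interpolated between the surrounding concentrations. Definition used: TGI = concentration required for complete inhibition of growth.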

Test systems include A549 NSCLC; BT-549 breast; CCRF-CEM leukemia; HCC-2998 colon; HCT-116 colon; K-562 leukemia; M14 melanoma; MDA-MB-435; NCI-H226 lung; OVCAR-4 ovarian; SF-268 CNS; SF-539 CNS; SK-OV-3 ovarian; SN12C renal; SW-620 colon; T-47D breast; U251 CNS; UACC-257 melanoma; UO-31 renal; SK-MEL-28 melanoma.
Test in all cases: growth of human tumour cells (NCI), 48 h

As for `O=C(NC1C/C(=N/O)c2c(Br)sc(Br)c21)C(F)(F)F` (stereo not given), the TGI in the assay with A549 NSCLC was 96.9 µM; in the assay on BT-549 breast, > 100 µM; with CCRF-CEM leukemia, 48.5 µM; with HCC-2998 colon it was > 100 µM; in the assay on HCT-116 colon, 30.9 µM; in the assay with K-562 leukemia it was 38.4 µM. Moreover, the TGI in the assay on M14 melanoma was > 100 µM; in the assay on MDA-MB-435, > 100 µM; in the assay on NCI-H226 lung, 97.7 µM; with OVCAR-4 ovarian, 43.7 µM; with SF-268 CNS it was > 100 µM; in the assay on SF-539 CNS, 38.9 µM. The TGI in the assay on SK-OV-3 ovarian was > 100 µM; in the assay on SN12C renal, 56.1 µM; with SW-620 colon it was > 100 µM; in the assay on T-47D breast it was > 100 µM; with U251 CNS it was 39.2 µM; in the assay with UACC-257 melanoma it was 72.3 µM. This molecule returned a TGI in the assay with UO-31 renal of 98.5 µM.

In the case of `N#CC1=C(N)N(/N=C/c2ccco2)C(c2ccco2)C1(C#N)C#N` (stereo not given), the TGI in the assay with A549 NSCLC was determined as 56.2 µM; in the assay on BT-549 breast, 34.9 µM; in the assay on CCRF-CEM leukemia, 19.2 µM; in the assay on HCC-2998 colon, 34.7 µM; in the assay on HCT-116 colon, 25.3 µM; in the assay with K-562 leukemia, 85.1 µM. Besides, the TGI with M14 melanoma was 43.6 µM; in the assay on MDA-MB-435, 41.4 µM; in the assay on NCI-H226 lung, 37.7 µM; in the assay with OVCAR-4 ovarian it was 32.5 µM; in the assay with SF-268 CNS it was 79.7 µM; with SF-539 CNS, 48.9 µM. The TGI amounted to 83.8 µM in the assay on SK-OV-3 ovarian; 70 µM in the assay with SN12C renal; 24.5 µM in the assay with SW-620 colon; 33.2 µM in the assay with T-47D breast; 36.1 µM in the assay on U251 CNS; 33.2 µM with UACC-257 melanoma. This molecule also had a TGI with UO-31 renal of 34.4 µM.

As for `O=S(=O)(c1ccccc1)c1ccc(-c2nc(-c3ccc4c(c3)Sc3ccccc3S4)cs2)cc1`, the TGI is > 100 µM with A549 NSCLC; 91.7 µM with BT-549 breast; > 100 µM in the assay on CCRF-CEM leukemia; > 100 µM with HCC-2998 colon; > 100 µM with HCT-116 colon; > 100 µM with K-562 leukemia. In addition, the TGI in the assay on M14 melanoma, in the assay with MDA-MB-435, in the assay on NCI-H226 lung, in the assay with OVCAR-4 ovarian, with SF-268 CNS and in the assay with SF-539 CNS was > 100 µM in each case. The TGI in the assay with SK-OV-3 ovarian is 41.9 µM; in the assay with SN12C renal, > 100 µM; in the assay with SW-620 colon it was > 100 µM; in the assay with T-47D breast it was > 100 µM; with U251 CNS it was > 100 µM; in the assay on UACC-257 melanoma, > 100 µM. Also, the TGI with UO-31 renal is > 100 µM.

Take `COc1ccc(-c2nnc3n(C)c4ccccc4n3c2=O)cc1`: the TGI in the assay on A549 NSCLC, with BT-549 breast, in the assay with CCRF-CEM leukemia, in the assay with HCC-2998 colon, with HCT-116 colon and in the assay with M14 melanoma was > 100 µM in each case. The TGI in the assay with MDA-MB-435, with NCI-H226 lung, with OVCAR-4 ovarian, in the assay with SF-268 CNS, in the assay on SF-539 CNS and in the assay with SK-MEL-28 melanoma was > 100 µM in each case. Also, the TGI in the assay with SN12C renal was > 100 µM; in the assay on SW-620 colon, > 100 µM; in the assay with T-47D breast, > 100 µM; in the assay with U251 CNS, 84.9 µM; with UACC-257 melanoma it was > 100 µM; in the assay with UO-31 renal, > 100 µM.

`CCN(C(=O)N[C@H](C(=O)N[C@@H](CSC)C(=O)N[C@@H](C)C(=O)OC)C(C)C)c1ccccc1`: the TGI with A549 NSCLC is 55 µM; in the assay with BT-549 breast it was 32.5 µM; with CCRF-CEM leukemia, 19.3 µM; in the assay on HCC-2998 colon, 39.3 µM; in the assay on HCT-116 colon it was 30.9 µM; in the assay on K-562 leukemia it was > 100 µM. The TGI turned out to be 28.7 µM in the assay with M14 melanoma; 27.8 µM with MDA-MB-435; 31.8 µM in the assay with NCI-H226 lung; 47.4 µM in the assay with OVCAR-4 ovarian; 39.2 µM in the assay with SF-539 CNS; 28.7 µM with SK-MEL-28 melanoma. Moreover, the TGI worked out at 30.7 µM with SK-OV-3 ovarian; 43.1 µM in the assay on SN12C renal; 28 µM in the assay with SW-620 colon; 76.3 µM in the assay with T-47D breast; 29.4 µM with U251 CNS; 25 µM with UACC-257 melanoma. Besides, the TGI in the assay with UO-31 renal was 31.3 µM.

`CN(C)CCCn1c(Cn2nc3ccccc3n2)nc2cc(C(F)(F)F)ccc21`: the TGI in the assay on A549 NSCLC is > 100 µM; in the assay with BT-549 breast it was > 100 µM; in the assay with CCRF-CEM leukemia it was 39.5 µM; in the assay on HCC-2998 colon, 21.2 µM; in the assay on HCT-116 colon, > 100 µM; in the assay on K-562 leukemia, 36.6 µM. Besides, the TGI is 29 µM with M14 melanoma; 33 µM in the assay on MDA-MB-435; > 100 µM in the assay with NCI-H226 lung; > 100 µM with OVCAR-4 ovarian; > 100 µM in the assay on SF-268 CNS; 34.6 µM in the assay with SK-MEL-28 melanoma. In addition, the TGI in the assay on SK-OV-3 ovarian is 60.9 µM; in the assay on SN12C renal it was > 100 µM; with SW-620 colon, > 100 µM; with T-47D breast, 35.1 µM; with U251 CNS, > 100 µM; in the assay on UACC-257 melanoma, 33.5 µM. Moreover, the TGI with UO-31 renal was found to be 73.2 µM.

Turning to `CCCCCCCCCCCCOC1C(COCCN2CCCCC2)OC2OC(C)(C)OC21` (stereo not given), the TGI is 19.9 µM with A549 NSCLC; 5.8 µM in the assay on BT-549 breast; 2.99 µM in the assay with CCRF-CEM leukemia; 3.01 µM in the assay on HCC-2998 colon; 3.07 µM in the assay with HCT-116 colon; 2.99 µM with M14 melanoma. The TGI with MDA-MB-435 was 3.17 µM; in the assay with NCI-H226 lung, 17.6 µM; in the assay with SF-268 CNS, 6.44 µM; in the assay on SF-539 CNS it was 3.18 µM; with SK-MEL-28 melanoma it was 3.25 µM; with SK-OV-3 ovarian, 15.9 µM. Also, the TGI turned out to be 4.72 µM with SN12C renal; 3.23 µM with SW-620 colon; 4.01 µM in the assay on T-47D breast; 3.48 µM with U251 CNS; 3.18 µM with UACC-257 melanoma; 3.22 µM with UO-31 renal.

With `C(=N\NC1=NCCN1)/c1ccc2ccccc2c1`, the TGI was found to be 29.5 µM in the assay on A549 NSCLC; 25.3 µM in the assay on BT-549 breast; 41.8 µM in the assay with CCRF-CEM leukemia; 31.2 µM in the assay on HCC-2998 colon; 28.9 µM in the assay on HCT-116 colon; 32.6 µM in the assay on K-562 leukemia. For the same molecule, the TGI with MDA-MB-435 was found to be 31.3 µM; in the assay on NCI-H226 lung it was 51.2 µM; in the assay on OVCAR-4 ovarian, 54.3 µM; in the assay on SF-268 CNS, 47.6 µM; with SF-539 CNS, 39.4 µM; in the assay with SK-MEL-28 melanoma it was 28.7 µM. In addition, the TGI in the assay on SK-OV-3 ovarian was 34.1 µM; in the assay with SN12C renal it was 35.4 µM; with SW-620 colon it was 32.6 µM; in the assay on T-47D breast, > 100 µM; with U251 CNS it was 29.8 µM; in the assay on UACC-257 melanoma, 29.3 µM. Further, in the assay on UO-31 renal, the TGI was determined as 19.9 µM.

The values above are taken from PubChem BioAssay (NCI).
